Experimental data: patent publication US8871756B2 (Hoffmann-La Roche Inc., priority 2011, dated 2014)
Structures can show the parent of a compound that is named as a salt.

Tested on: RSV Long strain
Experiment: Viral cytopathic effect (CPE) assay, anti-RSV activity
Format: cell-based, Respiratory Syncytial Virus
Settings: human respiratory syncytial virus, 144 h, RSV Long strain (ATCC); cell viability after 6 days, Cell Counting kit-8
Method in brief: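 Cells (6×10^3/well, DMEM with 10% FBS) were infected next day with RSV Long strain, at a dose giving approximately 80–90% CPE, alongside serial half-log compound dilutions. Viability was read after 6 days by CCK-8 absorbance at 450 nm (reference 630 nm), and EC50 was derived from it.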

EC50 [µM]	Structure (SMILES)
9.76	Cc1ccc2nc(N3CCS(=O)(=O)c4ccccc4C3)cc(S(=O)(=O)c3ccccc3)c2c1 [Example 102, 4-[6-Methyl-4-(phenylsulfonyl)quinolin-2-yl]-2,3,4,5-tetrahydro-1,4-benzothiazepine 1,1-dioxide]
9.64	Cc1ccc2nc(N3CCS(=O)(=O)c4ccccc4C3)cc(N(C)C)c2c1 [Example 16-2, 2-(1,1-Dioxido-2,3-dihydro-1,4-benzothiazepin-4(5H)-yl)-N,N,6-trimethylquinolin-4-amine]
2.15	Cc1ccc2nc(N3CCS(=O)(=O)c4ccccc4C3)cc(NCC(C)C(N)=O)c2c1 (stereo not shown) [Example 36-3, 3-{[2-(1,1-Dioxido-2,3-dihydro-1,4-benzothiazepin-4(5H)-yl)-6-methylquinolin-4-yl]amino}-2-methylpropanamide]
0.25	NCCNc1cc(N2CCOc3ccccc3C2)nc2ccccc12 [Example 134, N-[2-(2,3-Dihydro-1,4-benzoxazepin-4(5H)-yl)quinolin-4-yl]ethane-1,2-diamine]
0.026	Cc1ccc2nc(N3CCS(=O)(=O)c4ccccc4C3)cc(NCC(N)=O)c2c1 [Example 36-5, N^˜2^˜-[2-(1,1-Dioxido-2,3-dihydro-1,4-benzothiazepin-4(5H)-yl)-6-methylquinolin-4-yl]glycinamide]
0.817	Cc1ccc2nc(N3CCS(=O)(=O)c4ccccc4C3)cc(N[C@@H](C)CO)c2c1 [Example 8-2, (2S)-2-{[2-(1,1-Dioxido-2,3-dihydro-1,4-benzothiazepin-4(5H)-yl)-6-methylquinolin-4-yl]amino}propan-1-ol]
0.017	CCNCCNc1cc(N2CCS(=O)(=O)c3ccccc3C2)nc2ccc(C)cc12 [Example 3-37, N-[2-(1,1-Dioxido-2,3-dihydro-1,4-benzothiazepin-4(5H)-yl)-6-methylquinolin-4-yl]-N′-ethylethane-1,2-diamine]
0.289	NCCNc1cc(N2CCCc3ccccc3C2)nc2ccc(Br)cc12 [Example 118-10, N-[6-Bromo-2-(1,3,4,5-tetrahydro-2H-2-benzazepin-2-yl)quinolin-4-yl]ethane-1,2-diamine]
0.019	Cc1ccc2nc(N3CCS(=O)(=O)c4ccccc4C3)nc(N[C@@H]3CNC[C@H]3F)c2c1 (relative stereo) [Example 92-2, N-(trans-4-Fluoropyrrolidin-3-yl)-6-methyl-2-(1,1-dioxido-2,3-dihydro-1,4-benzothiazepin-4(5H)-yl)quinazolin-4-amine]
0.003	NCCNc1cc(N2CCS(=O)(=O)c3ccccc3C2)nc2ccc(CO)cc12 [Example 10, {4-[(2-Aminoethyl)amino]-2-(1,1-dioxido-2,3-dihydro-1,4-benzothiazepin-4(5H)-yl)quinolin-6-yl}methanol]
0.619	Cc1ccc2nc(N3CC[S+]([O-])c4ccccc4C3)cc(NCCO)c2c1 (stereo not shown) [Example 18-11, 2-{[6-Methyl-2-(1-oxido-2,3-dihydro-1,4-benzothiazepin-4(5H)-yl)quinolin-4-yl]amino}ethanol]
1.13	NCCNc1cc(N2CCCc3ccccc3C2)nc2c(Cl)cccc12 [Example 118-20, N-[8-Chloro-2-(1,3,4,5-tetrahydro-2H-2-benzazepin-2-yl)quinolin-4-yl]ethane-1,2-diamine]
3.41	Cc1ccc2nc(N3CCS(=O)(=O)c4ccccc4C3)cc(NS(C)(=O)=O)c2c1 [Example 47-7, N-[2-(1,1-Dioxido-2,3-dihydro-1,4-benzothiazepin-4(5H)-yl)-6-methylquinolin-4-yl]methanesulfonamide trifluoroacetate]
2.47	NCC1(CNc2nc(N3CCS(=O)(=O)c4ccccc4C3)nc3ccc(C(=O)O)cc23)COC1 [Example 108-2, 4-({[3-(Aminomethyl)oxetan-3-yl]methyl}amino)-2-(1,1-dioxido-2,3-dihydro-1,4-benzothiazepin-4(5H)-yl)quinazoline-6-carboxylic acid]
2.31	Cc1ccc2nc(N3CCS(=O)(=O)c4ccccc4C3)cc(NC(=O)Cc3ccccn3)c2c1 [Example 47-6, N-[2-(1,1-Dioxido-2,3-dihydro-1,4-benzothiazepin-4(5H)-yl)-6-methylquinolin-4-yl]-2-(pyridin-2-yl)acetamide]
0.001	[2H]C([2H])([2H])c1ccc2nc(N3CC[S+]([O-])c4ccccc4C3)nc(NCC3(CN)COC3)c2c1 (stereo not shown) [Example 107, N-{[3-(Aminomethyl)oxetan-3-yl]methyl}-6-trideuteriomethyl-2-(1-oxido-2,3-dihydro-1,4-benzothiazepin-4(5H)-yl)quinazolin-4-amine]
0.007	Cc1ccc2nc(N3Cc4ccccc4S(=O)(=O)C(C)C3)cc(NCCN)c2c1 (stereo not shown) [Example 69-1, N-[6-Methyl-2-(2-methyl-1,1-dioxido-2,3-dihydro-1,4-benzothiazepin-4(5H)-yl)quinolin-4-yl]ethane-1,2-diamine]

EC50 [µM]	Structure (SMILES)
0.032	NC1(CNc2cc(N3CCS(=O)(=O)c4ccccc4C3)nc3ccc(Cl)cc23)COC1 [Example 3-22, N-[(3-Aminooxetan-3-yl)methyl]-6-chloro-2-(1,1-dioxido-2,3-dihydro-1,4-benzothiazepin-4(5H)-yl)quinolin-4-amine]
0.184	Cc1ccc2nc(N3CCS(=O)(=O)c4ccccc4C3)cc(NC(=O)c3cccnn3)c2c1 [Example 3-58, N-[2-(1,1-Dioxido-2,3-dihydro-1,4-benzothiazepin-4(5H)-yl)-6-methylquinolin-4-yl]pyridazine-3-carboxamide]
0.488	NCC1(CNc2nc(N3CC[S+]([O-])c4ccccc4C3)nc3ccc(C(=O)O)cc23)COC1 (stereo not shown) [Example 108-1, 4-({[3-(Aminomethyl)oxetan-3-yl]methyl}amino)-2-(1-oxido-2,3-dihydro-1,4-benzothiazepin-4(5H)-yl)quinazoline-6-carboxylic acid]
0.004	NCC1(CNc2nc(N3CCS(=O)(=O)c4ccccc4C3)nc3ccc(Cl)cc23)COC1 [Example 56-3, N-{[3-(aminomethyl)oxetan-3-yl]methyl}-6-chloro-2-(1,1-dioxido-2,3-dihydro-1,4-benzothiazepin-4(5H)-yl)quinazolin-4-amine]
3.12	NCCNc1cc(N2CCCc3ccccc3C2)nc2ccc(Oc3ccccn3)cc12 [Example 122, N-[6-(Pyridin-2-yloxy)-2-(1,3,4,5-tetrahydro-2H-2-benzazepin-2-yl)quinolin-4-yl]ethane-1,2-diamine]
0.064	CO[C@@H]1CNC[C@H]1Nc1cc(N2CCS(=O)(=O)c3ccccc3C2)nc2ccc(C)cc12 (relative stereo) [Example 8-4, 2-(1,1-Dioxido-2,3-dihydro-1,4-benzothiazepin-4(5H)-yl)-N-[trans-4-methoxypyrrolidin-3-yl]-6-methylquinolin-4-amine]
1.66	Cc1ccc2nc(N3CCC(F)(F)c4ccccc4C3)cc(NCC(O)CO)c2c1 (stereo not shown) [Example 110-5, 3-{[2-(5,5-Difluoro-1,3,4,5-tetrahydro-2H-2-benzazepin-2-yl)-6-methylquinolin-4-yl]amino}propane-1,2-diol]
0.648	CCNC(=O)Nc1cc(N2CCC(F)(F)c3ccccc3C2)nc2ccc(C)cc12 [Example 110-14]
3.05	O=S1(=O)CCN(c2cc(NCC3(NCc4ccccc4)COC3)c3cc(Cl)ccc3n2)Cc2cc(F)ccc21 [Example 3-2, N-{[3-(Benzylamino)oxetan-3-yl]methyl}-6-chloro-2-(7-fluoro-1,1-dioxido-2,3-dihydro-1,4-benzothiazepin-4(5H)-yl)quinolin-4-amine]
0.186	Cc1ccc2nc(N3CC[S+]([O-])c4ccccc4C3)nc(N3C[C@@H](N)[C@H](F)C3)c2c1 (relative stereo) [Example 62-7, trans-4-Fluoro-1-[6-methyl-2-(1-oxido-2,3-dihydro-1,4-benzothiazepin-4(5H)-yl)quinazolin-4-yl]pyrrolidin-3-amine]
0.025	Cc1ccc2nc(N3CCS(=O)(=O)c4ccccc4C3)cc(NC(C)(C)CN)c2c1 [Example 9-17, N^˜2^˜-[2-(1,1-Dioxido-2,3-dihydro-1,4-benzothiazepin-4(5H)-yl)-6-methylquinolin-4-yl]-2-methylpropane-1,2-diamine]
0.941	Cc1ccc2nc(N3CCS(=O)(=O)c4ccccc4C3)cc(NCC(C)O)c2c1 (stereo not shown) [Example 5-7, 1-{[2-(1,1-Dioxido-2,3-dihydro-1,4-benzothiazepin-4(5H)-yl)-6-methylquinolin-4-yl]amino}propan-2-ol]
0.239	NC1(CNc2nc(N3CCSc4ccccc4C3)nc3ccc(Cl)cc23)COC1 [Example 57-4, N-[(3-Aminooxetan-3-yl)methyl]-6-chloro-2-(2,3-dihydro-1,4-benzothiazepin-4(5H)-yl)quinazolin-4-amine]
7.53	Cc1ccc2nc(N3CCS(=O)(=O)c4ccccc4C3)cc(NS(=O)(=O)C(F)(F)F)c2c1 [Example 3-57, N-[2-(1,1-Dioxido-2,3-dihydro-1,4-benzothiazepin-4(5H)-yl)-6-methylquinolin-4-yl]-1,1,1-trifluoromethanesulfonamide hydrochloride]
5.82	Cc1ccc2nc(N3CCS(=O)(=O)c4ccccc4C3)cc(NC(=O)C3CNC(=O)C3)c2c1 (stereo not shown) [Example 47-2, N-[2-(1,1-Dioxido-2,3-dihydro-1,4-benzothiazepin-4(5H)-yl)-6-methylquinolin-4-yl]-5-oxopyrrolidine-3-carboxamide]
2.57	Cc1ccc2nc(N3CCS(=O)(=O)c4ccccc4C3)cc(N3CCCC(N)C3)c2c1 (stereo not shown) [Example 16-1, 1-[2-(1,1-Dioxido-2,3-dihydro-1,4-benzothiazepin-4(5H)-yl)-6-methylquinolin-4-yl]piperidin-3-amine]
0.764	Cc1cccc2c(NCCCCCCCCCCN)cc(N3CCS(=O)(=O)c4ccccc4C3)nc12 [Example 12-4, N-[2-(1,1-Dioxido-2,3-dihydro-1,4-benzothiazepin-4(5H)-yl)-8-methylquinolin-4-yl]decane-1,10-diamine]
